Measurements as given in patent US6998129B2, “Cosmetic or dermatological composition comprising an association between an elastase inhibitor compound of the N-acylaminoamide family and at least one anti-inflammatory compound” (L'Oreal, priority 2001, dated 2006).

Key:
[1] = biological target: T1, human leukocyte elastase (ELH) (Homo sapiens, UniProt P08246); test: in vitro anti-elastasic activity on Me-OSAAPV-p-NA substrate; type: biochemical; conditions: even in a small amount
T1 sequence (P08246 30-267): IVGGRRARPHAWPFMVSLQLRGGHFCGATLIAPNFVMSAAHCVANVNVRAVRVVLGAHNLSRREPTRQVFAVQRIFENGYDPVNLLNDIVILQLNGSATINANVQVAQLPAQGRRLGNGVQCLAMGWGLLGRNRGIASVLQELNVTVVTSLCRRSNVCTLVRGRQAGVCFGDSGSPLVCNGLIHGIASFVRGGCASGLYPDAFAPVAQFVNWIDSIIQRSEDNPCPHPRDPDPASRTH
Experimental: The anti-elastasic activity of compounds according to the invention is determined in vitro compared to the human leukocyte elastase (ELH).
The test is performed in the following way:
A Me-OSAAPV-p-NA (methyl-O-succinate alanine alanine proline valine-p-nitroaniline) substrate, onto which ELH (40 milli-units per ml) and 0.1% of the compound to be tested are applied, is left for incubating at 37° C. for 60 minutes.
Thereafter, the % inhibition of the control elastase activity is determined by spectrophotometry.

[2] = system: surviving human skins treated by a human leukocyte elastase (ELH); test: ex vivo protection of elastic fibres in fresh human skin cuts treated with ELH for 2 hours (Example 4); type: cell-based; conditions: 20° C.
Experimental: (§1) The ex vivo activity of example 2 compound has been evaluated on surviving human skins treated by a human leukocyte elastase (ELH).
(§2) The test is performed the following way.
Fresh human skin cuts from two different donors are treated for 2 hours, at 20° C., by 20 μl of a buffer solution (pH 7.4) optionally comprising 10 μg/ml ELH and optionally 0.1% of the compound to be tested, optionally previously put in solution in ethanol.
The elastic fibres are colored in blue using catechin (+) and quantified morphometrically using a computer assisted image analysis. The average derma surface percentage occupied by elastic fibres Is evaluated this way.

[3] = system: surviving human skins treated by a human leukocyte elastase (ELH); test: ex vivo protection of elastic fibres in human skin fragments kept surviving 10 days with ELH (Example 5); type: cell-based; conditions: 0.5 μg ELH per ml; 5 μl of 0.2% solution in ethanol every two days; 10 days at 37° C.; three donors; control 7.4%, ELH alone 5.1%
Experimental: as §1, §2
Fragments of normal human skin from three different donors are deposited in inserts positioned in culture wells. Culture medium added with antibiotics is added in the bottom of the wells. A pass is performed through slow diffusion between the two compartments via a porous membrane (pore size: 12 μm).
(§3) The culture medium is renewed every three days.
On the skin fragments, optionally 0.5 μg ELH per ml culture medium are added.
5 μl of the compound to be tested are also added every two days, previously put in solution at 0.2% by weight in ethanol.
The skins are kept surviving for 10 days at 37° C.
The elastic fibres are colored in blue using catechin (+) and quantified morphometrically using a computer assisted image analysis, The average derma surface percentage occupied by elastic fibres is evaluated this way.

[4] = system: surviving human skins irradiated by UVA (8 J/cm^2); test: protection of elastic fibres and collagen in surviving human skins irradiated by UVA (Example 6); type: cell-based; conditions: UVA 8 J/cm^2 once, 5 μl of 0.2% solution every two days, 7 days at 37° C.
Experimental: The activity of the example 2 compound has been evaluated on surviving human skins irradiated by UVA (8 J/cm^2).
as §2
Fragments of normal human skin from four different donors are deposited in inserts positioned in culture wells. Culture medium added with antibiotics is added in the bottom of the wells. A pass is performed through slow diffusion between the two compartments via a porous membrane (pore size: 12 μm).
as §3
On the skin fragments, every two days, 5 μl of the compound to be tested are added, previously put in solution at 0.2% wt in ethanol.
The skins are kept surviving for 7 days at 37° C.
The skins are radiated once at 8 J/cm^2 (RMX-3W Vilbert-Lourmat lamp).
The elastic fibres are colored in blue using catechin (+) and quantified morphometrically using a computer assisted image analysis. The average derma surface percentage occupied by elastic fibres is evaluated this way.

CC(=O)N(c1cccc(C(F)(F)F)c1)C(C(=O)NCC(=O)O)C(C)C (stereo not drawn) [Example 2, {2-[acetyl-(3-trifluoromethyl-phenyl)-amino]-3-méthyl-butyrylamino}acetic acid]
inhibition of the elastase activity (in words) [1]: strong inhibition
% Surface occupied by elastic fibres ([2]; Skin 1, 10 μg/ml ELH + 0.1% compound, control 12.7%, ELH alone 4.85%): 13.95%
% Surface occupied by elastic fibres ([2]; Skin 2, 10 μg/ml ELH + 0.1% compound, control 15.25%, ELH alone 6.85%): 11.85%
% Surface occupied by elastic fibres [3]: 7.1%
Elastic fibres morphometric analysis (superficial derma) ([4]; untreated 6.75%, UVA alone 3.9%): 6.8%
Collagen morphometric analysis (superficial derma) ([4]; untreated 87%, UVA alone 81%): 92%
